Four compounds from patent US11034650B2, “Compounds useful for treating a Mannheimia haemolytica or Histophilus somni infection” (Intervet Inc., priority 2016, dated 2021) can be followed below.

Each structure is given as a SMILES string. Converted amounts (≈) assume the structure as drawn. Where only a bound is given, the exact number is not on record here.

For the first assay, the system named is Mannheimia haemolytica MH 6357 (M7/2, reference strain, cattle infection strain). Nature of the assay: MIC, broth-microdilution (CLSI VET01-A4), strain MH 6357. In kind it is cell-based. The settings on record: Mannheimia haemolytica strain MH 6357, broth-microdilution; unit assumed. On the procedure:
(§1) For example, representative compounds were tested against ***, Mannheimia haemolytica and Pasteurella multocida, using the conventional broth-dilution assay.
(§2) The Minimum inhibitory concentrations (MIC) of compounds according to the invention for a number of veterinary bacterial pathogens were determined by the broth-microdilution method according to CLSI document VET01-A4.
(§3) Microdilution trays containing a doubling dilution series of the test compound were used for the tests. The MIC results were interpreted according to the CLSI documents VET01-S3. The lowest concentration of compound at which no visible growth (i.e. no turbidity) detected by the unaided eye was recorded as the MIC.
(In general: Broth dilution looks for growth in wells or tubes with falling amounts of substance.)
Regarding `CC(C)[C@H](NC(=O)c1ccc(C#Cc2ccc(CNCc3ccc(Cl)cc3)cc2)cc1)C(=O)NO` [Compound 106], the MIC MH 6357 was 0.8 µg/mL (≈ 1.63 µM).
The same measure, in the same setting: to `CC(C)[C@H](NC(=O)c1ccc(C#Cc2ccc(CNCc3ccc(N(C)C)cc3)cc2)cc1)C(=O)NO` [Compound 108] belongs 3.1 µg/mL (≈ 6.22 µM); to `CC[C@H](C)[C@H](NC(=O)c1ccc(C#Cc2ccc(CNCCOC)cc2)cc1)C(=O)NO` [Compound 115], 6.3 µg/mL (≈ 14.4 µM).
With `CC[C@H](C)[C@H](NC(=O)c1ccc(C#Cc2ccc(CNCc3ccc(OC)cc3)cc2)cc1)C(=O)NO` [Compound 129], the MIC MH 6357 amounted to 1.6 µg/mL (≈ 3.2 µM).

Another assay deals with Mannheimia haemolytica MH 6374 (ATCC 33396, reference strain). Nature of the assay: MIC, broth-microdilution (CLSI VET01-A4), strain MH 6374. In kind it is cell-based. The settings on record: Mannheimia haemolytica strain MH 6374, broth-microdilution; unit assumed. Here is the method:
as §1, §2, §3
Compound `CC(C)[C@H](NC(=O)c1ccc(C#Cc2ccc(CNCc3ccc(Cl)cc3)cc2)cc1)C(=O)NO` [Compound 106] returned an MIC MH 6374 of 0.8 µg/mL (≈ 1.63 µM).
The compound `CC(C)[C@H](NC(=O)c1ccc(C#Cc2ccc(CNCc3ccc(N(C)C)cc3)cc2)cc1)C(=O)NO` [Compound 108] came in with an MIC MH 6374 of 1.6 µg/mL (≈ 3.21 µM).
Still for that read-out and setting: to `CC[C@H](C)[C@H](NC(=O)c1ccc(C#Cc2ccc(CNCCOC)cc2)cc1)C(=O)NO` [Compound 115] belongs 1.6 µg/mL (≈ 3.66 µM); to `CC[C@H](C)[C@H](NC(=O)c1ccc(C#Cc2ccc(CNCc3ccc(OC)cc3)cc2)cc1)C(=O)NO` [Compound 129], 1.6 µg/mL (≈ 3.2 µM).

The next assay has as its system Mannheimia haemolytica MH 10720 (154, BRD field isolate). Kind of assay: MIC, broth-microdilution (CLSI VET01-A4), strain MH 10720. In kind it is cell-based. The settings on record: Mannheimia haemolytica strain MH 10720, broth-microdilution; unit assumed. Here is the method: as §1, §2, §3
`CC(C)[C@H](NC(=O)c1ccc(C#Cc2ccc(CNCc3ccc(Cl)cc3)cc2)cc1)C(=O)NO` [Compound 106] came in with an MIC MH 10720 of 0.2 µg/mL (≈ 0.408 µM).
Compound `CC(C)[C@H](NC(=O)c1ccc(C#Cc2ccc(CNCc3ccc(N(C)C)cc3)cc2)cc1)C(=O)NO` [Compound 108] gave an MIC MH 10720 of 1.6 µg/mL (≈ 3.21 µM).
As for `CC[C@H](C)[C@H](NC(=O)c1ccc(C#Cc2ccc(CNCCOC)cc2)cc1)C(=O)NO` [Compound 115], the MIC MH 10720 was found to be 0.8 µg/mL (≈ 1.83 µM).
In turn, `CC[C@H](C)[C@H](NC(=O)c1ccc(C#Cc2ccc(CNCc3ccc(OC)cc3)cc2)cc1)C(=O)NO` [Compound 129] had an MIC MH 10720 of 0.4 µg/mL (≈ 0.801 µM).

The subject of a further assay is Mannheimia haemolytica MH 12587 (1071, BRD field isolate, macrolide-resistance: erm+, E+). Nature of the assay: MIC, broth-microdilution (CLSI VET01-A4), strain MH 12587. In kind it is cell-based. The settings on record: Mannheimia haemolytica strain MH 12587, broth-microdilution; unit assumed. Here is the method: as §1, §2, §3
In the case of `CC(C)[C@H](NC(=O)c1ccc(C#Cc2ccc(CNCc3ccc(Cl)cc3)cc2)cc1)C(=O)NO` [Compound 106], the MIC MH 12587 was found to be 1.6 µg/mL (≈ 3.27 µM).
For `CC(C)[C@H](NC(=O)c1ccc(C#Cc2ccc(CNCc3ccc(N(C)C)cc3)cc2)cc1)C(=O)NO` [Compound 108], the MIC MH 12587 came to 3.1 µg/mL (≈ 6.22 µM).
`CC[C@H](C)[C@H](NC(=O)c1ccc(C#Cc2ccc(CNCCOC)cc2)cc1)C(=O)NO` [Compound 115] showed an MIC MH 12587 of 6.3 µg/mL (≈ 14.4 µM).
Regarding `CC[C@H](C)[C@H](NC(=O)c1ccc(C#Cc2ccc(CNCc3ccc(OC)cc3)cc2)cc1)C(=O)NO` [Compound 129], the MIC MH 12587 was 3.1 µg/mL (≈ 6.2 µM).

Another assay concerns Mannheimia haemolytica MH 13065 (XB0446-6003.9, BRD field isolate). Kind of assay: MIC, broth-microdilution (CLSI VET01-A4), strain MH 13065. In kind it is cell-based. The settings on record: Mannheimia haemolytica strain MH 13065, broth-microdilution; unit assumed. Here is the method:
as §1, §2, §3
`CC(C)[C@H](NC(=O)c1ccc(C#Cc2ccc(CNCc3ccc(Cl)cc3)cc2)cc1)C(=O)NO` [Compound 106] yielded an MIC MH 13065 of 0.8 µg/mL (≈ 1.63 µM).
In turn, `CC(C)[C@H](NC(=O)c1ccc(C#Cc2ccc(CNCc3ccc(N(C)C)cc3)cc2)cc1)C(=O)NO` [Compound 108] registered an MIC MH 13065 of 1.6 µg/mL (≈ 3.21 µM).
The compound `CC[C@H](C)[C@H](NC(=O)c1ccc(C#Cc2ccc(CNCCOC)cc2)cc1)C(=O)NO` [Compound 115] registered an MIC MH 13065 of 3.1 µg/mL (≈ 7.09 µM).
For the compound `CC[C@H](C)[C@H](NC(=O)c1ccc(C#Cc2ccc(CNCc3ccc(OC)cc3)cc2)cc1)C(=O)NO` [Compound 129], the MIC MH 13065 worked out at 1.6 µg/mL (≈ 3.2 µM).

Another assay concerns Mannheimia haemolytica MH 13093 (XB0472-6014.1, BRD field isolate). Nature of the assay: MIC, broth-microdilution (CLSI VET01-A4), strain MH 13093. The assay is classed as cell-based. The following applies: Mannheimia haemolytica strain MH 13093, broth-microdilution; unit assumed. On the procedure: as §1, §2, §3
`CC(C)[C@H](NC(=O)c1ccc(C#Cc2ccc(CNCc3ccc(Cl)cc3)cc2)cc1)C(=O)NO` [Compound 106] registered an MIC MH 13093 of 1.6 µg/mL (≈ 3.27 µM).
On to `CC(C)[C@H](NC(=O)c1ccc(C#Cc2ccc(CNCc3ccc(N(C)C)cc3)cc2)cc1)C(=O)NO` [Compound 108], for which the MIC MH 13093 amounted to 3.1 µg/mL (≈ 6.22 µM).
On the same count and under the same terms, to `CC[C@H](C)[C@H](NC(=O)c1ccc(C#Cc2ccc(CNCCOC)cc2)cc1)C(=O)NO` [Compound 115] belongs 3.1 µg/mL (≈ 7.09 µM); to `CC[C@H](C)[C@H](NC(=O)c1ccc(C#Cc2ccc(CNCc3ccc(OC)cc3)cc2)cc1)C(=O)NO` [Compound 129], 3.1 µg/mL (≈ 6.2 µM).

A further assay relates to Pasteurella multocida PM 6267 (P 2225 (L386), reference strain, mouse infection strain). Kind of assay: MIC, broth-microdilution (CLSI VET01-A4), strain PM 6267. The settings on record: Pasteurella multocida strain PM 6267, broth-microdilution; unit assumed. In kind it is cell-based. Here is the method: as §1, §2, §3
On to `CC(C)[C@H](NC(=O)c1ccc(C#Cc2ccc(CNCc3ccc(Cl)cc3)cc2)cc1)C(=O)NO` [Compound 106], for which the MIC PM 6267 was 0.2 µg/mL (≈ 0.408 µM).
`CC(C)[C@H](NC(=O)c1ccc(C#Cc2ccc(CNCc3ccc(N(C)C)cc3)cc2)cc1)C(=O)NO` [Compound 108] returned an MIC PM 6267 of 0.4 µg/mL (≈ 0.802 µM).
`CC[C@H](C)[C@H](NC(=O)c1ccc(C#Cc2ccc(CNCCOC)cc2)cc1)C(=O)NO` [Compound 115] came in with an MIC PM 6267 of 0.4 µg/mL (≈ 0.914 µM).
`CC[C@H](C)[C@H](NC(=O)c1ccc(C#Cc2ccc(CNCc3ccc(OC)cc3)cc2)cc1)C(=O)NO` [Compound 129] yielded an MIC PM 6267 of 0.8 µg/mL (≈ 1.6 µM).

In the next assay the test system is Pasteurella multocida PM 10775 (080130003051, BRD field isolate). Kind of assay: MIC, broth-microdilution (CLSI VET01-A4), strain PM 10775. In kind it is cell-based. The following applies: Pasteurella multocida strain PM 10775, broth-microdilution; unit assumed. On the procedure:
as §1, §2, §3
In the case of `CC(C)[C@H](NC(=O)c1ccc(C#Cc2ccc(CNCc3ccc(Cl)cc3)cc2)cc1)C(=O)NO` [Compound 106], the MIC PM 10775 was ≤ 0.1 µg/mL.
As for `CC(C)[C@H](NC(=O)c1ccc(C#Cc2ccc(CNCc3ccc(N(C)C)cc3)cc2)cc1)C(=O)NO` [Compound 108], the MIC PM 10775 was ≤ 0.1 µg/mL.
For `CC[C@H](C)[C@H](NC(=O)c1ccc(C#Cc2ccc(CNCCOC)cc2)cc1)C(=O)NO` [Compound 115], the MIC PM 10775 is ≤ 0.1 µg/mL.
For the compound `CC[C@H](C)[C@H](NC(=O)c1ccc(C#Cc2ccc(CNCc3ccc(OC)cc3)cc2)cc1)C(=O)NO` [Compound 129], the MIC PM 10775 was ≤ 0.1 µg/mL.

The next assay concerns Pasteurella multocida PM 12080 (IV102277-0093, BRD field isolate). Nature of the assay: MIC, broth-microdilution (CLSI VET01-A4), strain PM 12080. The assay is classed as cell-based. The following applies: Pasteurella multocida strain PM 12080, broth-microdilution; unit assumed. Here is the method: as §1, §2, §3
As for `CC(C)[C@H](NC(=O)c1ccc(C#Cc2ccc(CNCc3ccc(Cl)cc3)cc2)cc1)C(=O)NO` [Compound 106], the MIC PM 12080 was determined as 0.8 µg/mL (≈ 1.63 µM).
Compound `CC(C)[C@H](NC(=O)c1ccc(C#Cc2ccc(CNCc3ccc(N(C)C)cc3)cc2)cc1)C(=O)NO` [Compound 108] yielded an MIC PM 12080 of 1.6 µg/mL (≈ 3.21 µM).
Compound `CC[C@H](C)[C@H](NC(=O)c1ccc(C#Cc2ccc(CNCCOC)cc2)cc1)C(=O)NO` [Compound 115] displayed an MIC PM 12080 of 1.6 µg/mL (≈ 3.66 µM).
Same read-out and setting: to `CC[C@H](C)[C@H](NC(=O)c1ccc(C#Cc2ccc(CNCc3ccc(OC)cc3)cc2)cc1)C(=O)NO` [Compound 129] belongs 1.6 µg/mL (≈ 3.2 µM).
